Results published in PMC9256790 (Molecular cancer therapeutics, 2022).

Experiments:
MDA-MB-468 = experiment: Cell proliferation; type: cell-based; settings: Homo sapiens, MDA-MB-468, read-out: Mean IC50 ± SEM
MDA-MB-468/TxR = experiment: Cell proliferation; type: cell-based; settings: Homo sapiens, MDA-MB-468, read-out: Mean IC50 ± SEM
Mia PaCa-2/ColxR = experiment: Cell proliferation; type: cell-based; settings: Homo sapiens, MIA PaCa-2, read-out: Mean IC50 ± SEM
cHCI-10 = experiment: Cell proliferation; type: cell-based, Human; settings: for proliferation of cHCI-10 cells: 10 nM, 5 days of treatment
[1] = system: MDA-MB-231 and MDA-MB-468 cells; experiment: Cell cycle analysis; type: cell-based, Human; settings: 10 nM; 24 h
cHCI-2 = experiment: Cell proliferation; type: cell-based, Human; settings: for proliferation of cHCI-2 cells: 10 nM, 5 days of treatment
MDA-MB-231 cells [2] = experiment: Immunofluorescence staining of microtubules; type: cell-based, Human; settings: 24 h
Mia PaCa-2 = experiment: Cell proliferation; type: cell-based; settings: Homo sapiens, MIA PaCa-2, read-out: Mean IC50 ± SEM
MDA-MB-231/TxR = experiment: Cell proliferation; type: cell-based; settings: Homo sapiens, read-out: Mean IC50 ± SEM
[3] = system: MDA-MB-231 or MDA-MB-468 cells; experiment: Colony formation assay; type: cell-based, Human; settings: 1 to 4 nM; both TNBC cell lines
MDA-MB-231 cells [4] = experiment: Wound healing; type: cell-based, Human; settings: 4 nM, 24 h
[5] = system: orthotopic MDA-MB-231 xenografts; experiment: Orthotopic MDA-MB-231 xenograft in comparison with CA4P; type: in vivo, mice
[6] = Homo sapiens, 120 h, read-out: Mean IC50 ± SEM

Row | SMILES | IC50 (MDA-MB-468) [nM] | IC50 (MDA-MB-468/TxR) [nM] | IC50 (Mia PaCa-2/ColxR) [nM] | proliferation of cHCI-10 cells (cHCI-10) | IC50 (cHCI-10; [6]) [nM] | cell cycle distribution [1] | proliferation of cHCI-2 cells (cHCI-2) | IC50 (cHCI-2; [6]) [nM] | microtubule structure (MDA-MB-231 cells [2]; 2.5 nM or 5 nM, interphase and mitotic phase) | IC50 (Mia PaCa-2) [nM] | IC50 (MDA-MB-231/TxR) [nM] | colony formation [3] | wound closure (MDA-MB-231 cells [4]) | microtubule structure (MDA-MB-231 cells [2]; 2.5 nM) | microtubule structure (MDA-MB-231 cells [2]; 5 nM, interphase) | average tumor volume vs vehicle ([5]; 28 mg/kg (equivalent to 20 mg/kg CA4) IP 5 times/week) | body weight ([5]; 28 mg/kg IP 5 times/week)
1 | CC(=O)O[C@H]1C(=O)[C@@]2(C)[C@H]([C@H](OC(=O)c3ccccc3)[C@]3(O)C[C@H](OC(=O)[C@H](O)[C@@H](NC(=O)c4ccccc4)c4ccccc4)C(C)=C1C3(C)C)[C@]1(OC(C)=O)CO[C@@H]1C[C@@H]2O [Paclitaxel] | 2 ± 0.2 | 152 ± 23.8 | 10.6 ± 1.1 | no activity | 43.6 ± 8.2 | arrested the cells into the M phase and the subG1 phase | reduced the proliferation | 12.7 ± 5.8 | condensed microtubules | 5.5 ± 0.6 | 112 ± 37.8 | robustly inhibited colony formation |  |  |  |  | 
2 | COc1cc2c(c(OC)c1OC)-c1ccc(OC)c(=O)cc1[C@@H](NC(C)=O)CC2 [Colchicine] |  |  |  | limited effects |  | little effect on cell cycle progression | limited effects |  |  |  |  | no effect | closed similar to untreated control cells | similarly organized and intact microtubule structures as untreated cells | disseminated and depolymerized microtubule arrangement |  | 
3 | COc1ccc(/C=C\c2cc(OC)c(OC)c(OC)c2)cc1OP(=O)(O)O [CA4P, fosbretabulin] |  |  |  |  |  |  |  |  |  |  |  |  |  |  |  | significantly reduced | no significant loss in body weight
